The values that follow come from US5945436A, “Pyridylmethyl nitriles, amides and thioamides useful as fungicides” (Uniroyal Chemical Company, Inc., priority 1997, dated 1999).

One assay has as its system Septoria nodorum. As to the kind of experiment: Fungal growth inhibition, treated disc on agar (SEP NOD). The class given is cell-based. The note with it: Parastagonospora nodorum, disc dipped in 500 mg/l, 29° C., read-out: Percent Growth Inhibition, SEP NOD.
Assay [1] concerns Cercosporidium personatum. Put plainly: Fungal germination and growth, treated disc on agar, scored (CER PER). The class given is cell-based. Details: key: 100: Complete inhibition of germination and growth.; 80: Nearly complete inhibition but some growth.; 50: Partial inhibition of growth or, early complete inhibition but later growth begins.; 20: Some inhibition of growth, but not significant.; 0: No inhibition of growth. Conditions: disc dipped in 500 mg/l, 29° C., numerical score 0-100, spore suspension. From the text:
Filter paper discs, each 11 mm. in diameter, were dipped in each of the test solutions. The discs were allowed to air dry to drive off the acetone solvent. A number of untreated discs were used as controls. The treated and untreated discs were then placed on agar plates and one of the following fungus species: Septoria nodorum (SEP NOD), Botrytis cinerea (BOT CIN), Fusarium oxysporum (FUS OXY), Pythium ultimum ([…]), Rhizoctonia solani (RHI SOL), Colletotrichum gossypii (COL GOS), and Scierotinia minor (SCL MIN), was added to the center of each disc in the form of a culture plug with the fungus mat in contact with the paper of the test disc. Cercosporidium personatum (CER PER), was added to discs as a spore suspension (20,000 spores/ml) to the disc (two drops of spore suspension per disc), rather than a mycelial culture plug. The plates were then incubated at 29° C. in an oven. In the case of the Cercosporidium personatum (CER PER) fungi, scoring was done on a numerical basis as follows: 100=Complete inhibition of germination and growth. 80=Nearly complete inhibition but some growth. 50=Partial inhibition of growth or, early complete inhibition but later growth begins. 20=Some inhibition of growth, but not significant. 0=No inhibition of growth. The results of all the above tests appear in Table III below under the headings "SEP NOD," "BOT CIN," "FUS OXY," "[…]" "COL GOS" and "CER PER".

The next assay relates to Helminthosporium sativum. Put plainly: Barley spot blotch, foliar treatment (HEL SAT). Type of assay: in vivo. Conditions: Helminthosporium, foliar, 216 h, foliar, 1,000 mg/l, read-out: Percent Reduction of Disease, HEL SAT. The procedure: Compositions containing Compounds Nos. 1-81 were prepared by dissolving 0.24 grams of each of the compounds in 8 ml of acetone or other suitable inert solvent. Each of the resultant solutions was treated with 3 drops of TWEEN 20 (ethoxylated ethylene sorbitan monolaurate, a non-ionic surfactant)(I.C.I.), and water was added to form an emulsion. The degree of dilution with water was dictated by the desired concentration of the compound in the composition. The greater the quantity of water added, the lower the concentration of the compound in the composition, reported in milligrams per liter (mg/l) Ten plants of six day-old Barley (variety "Robust") were planted in each of a plurality of pots. Each pot was then either sprayed with one of the compositions of Example 9, at a concentration of 1,000 mg/l, or left unsprayed. The unsprayed plants were used as controls. An equal number of pots were sprayed and unsprayed. All plants, sprayed and unsprayed, were thereafter inoculated with spores of the blotch fungus Helminthosporium sativum. All inoculated plants were placed in a 99% humidity chamber for 24 hours and then placed in a greenhouse, maintained at a temperature of 21° C., for eight days. […] Percent control was computed and the results are summarized in Table II under the heading "HEL SAT".

Assay [2] deals with Erysiphe graminis. Put plainly: Powdery mildew in barley, foliar application (ERY GRA). Type of assay: in vivo. Conditions: Blumeria graminis, foliar, 192 h, foliar, 1,000 mg/l, 8 days after inoculation, read-out: Percent Reduction of Disease, ERY GRA. The procedure: Compositions containing Compounds Nos. 1-81 were prepared by dissolving 0.24 grams of each of the compounds in 8 ml of acetone or other suitable inert solvent. Each of the resultant solutions was treated with 3 drops of TWEEN 20 (ethoxylated ethylene sorbitan monolaurate, a non-ionic surfactant)(I.C.I.), and water was added to form an emulsion. The degree of dilution with water was dictated by the desired concentration of the compound in the composition. The greater the quantity of water added, the lower the concentration of the compound in the composition, reported in milligrams per liter (mg/l) Ten plants of "Robust" variety barley were planted in each of a plurality of pots. Each pot was then either sprayed with one of the compositions of Example 9, at a composition concentration of 1,000 mg/l, or left unsprayed. For each pot sprayed, one pot was left unsprayed as a control. After the leaves of the sprayed pots were dried, the sprayed pots and the unsprayed control pots were placed in a greenhouse maintained at 21° C. All the pots were then inoculated with barley powdery mildew fungus, Erysiphe graminis. This inoculation was accomplished by distributing spores of the fungus over the leaves of the plants to be tested from plants which had previously been infected with the mildew disease. […] Again, percent control was computed by comparing the treatment scores with the scores of the untreated controls. The results are summarized in Table II under the heading "ERY GRA".

A further assay deals with Rhizoctonia solani. As to the kind of experiment: Fungal growth inhibition, treated disc on agar (RHI SOL). The class given is cell-based. Conditions: Rhizoctonia solani, disc dipped in 500 mg/l, 29° C., read-out: Percent Growth Inhibition, RHI SOL.
For the next assay, the system named is Erysiphe cichoracearum. As to the kind of experiment: Powdery mildew of cucumber, systemic root uptake (CMS). Type of assay: in vivo. Conditions: 45 ml of 250 mg/l, 8 days after inoculation. The protocol: (§1) Compositions containing Compounds Nos. 1-81 were prepared by dissolving 0.24 grams of each of the compounds in 8 ml of acetone or other suitable inert solvent. Each of the resultant solutions was treated with 3 drops of TWEEN 20 (ethoxylated ethylene sorbitan monolaurate, a non-ionic surfactant)(I.C.I.), and water was added to form an emulsion. The degree of dilution with water was dictated by the desired concentration of the compound in the composition. The greater the quantity of water added, the lower the concentration of the compound in the composition, reported in milligrams per liter (mg/l) […] Upon reaching these ages, the plants were either treated with 45 ml of 250 mg/l concentration of the compositions of Example 9 or were left untreated. The untreated plants were used as controls. The 45 ml compositions saturated the soil of the treated pots without significant loss through drainage into the saucers below the pots. Twenty-four hours after the treatment with the compositions, both the barley and cucumber plants in all the pots, those treated and those untreated, were inoculated with powdery mildew fungus. This was accomplished by tapping leaves of previously infected barley and cucumber plants over the treated and untreated pots containing the barley and cucumber plants, respectively, to distribute spores of the fungus over the plants tested. […] Intermediate ratings were assigned depending on the degree of disease. […] The results of the powdery mildew disease control of barley are reported under the heading of "BMS". The results for cucumber mildew control are reported under the heading "CMS".

Another assay concerns Pyricularia oryzae. As to the kind of experiment: whole plant or invertebrate. Type of assay: in vivo. Conditions: Pyricularia oryzae, in Hordeum vulgare, foliar, 216 h, read-out: Percent Reduction of Disease, PYR ORY, barley, foliar, 1,000 mg/l.
For a further assay, the system named is Fusarium oxysporum. Put plainly: Fungal growth inhibition, treated disc on agar (FUS OXY). Type of assay: cell-based. Conditions: Fusarium oxysporum, disc dipped in 500 mg/l, 29° C., read-out: Percent Growth Inhibition, FUS OXY.
In assay [3] the test system is Erysiphe graminis. Put plainly: Powdery mildew of barley, systemic root uptake (BMS). The class given is in vivo. The note with it: 45 ml of 250 mg/l, 8 days after inoculation. The protocol:
as §1

Procedure for Rhizoctonia solani: The treated and untreated discs were then placed on agar plates and one of the following fungus species: Septoria nodorum (SEP NOD), Botrytis cinerea (BOT CIN), Fusarium oxysporum (FUS OXY), Pythium ultimum (PYT ULT), Rhizoctonia solani (RHI SOL), Colletotrichum gossypii (COL GOS), and Scierotinia minor (SCL MIN), was added to the center of each disc in the form of a culture plug with the fungus mat in contact with the paper of the test disc. Cercosporidium personatum (CER PER), was added to discs as a spore suspension (20,000 spores/ml) to the disc (two drops of spore suspension per disc), rather than a mycelial culture plug. The plates were then incubated at 29° C. in an oven.
With the exception of the discs containing Cercosporidium personatum, the discs were evaluated by first measuring the radius from the center of the fungus colony on the treated discs and on the untreated discs. Percent growth inhibition of each of the compounds tested was determined as a function of the difference between the radius of the fungus colony on the treated disc versus the radius of the fungus colony on the untreated disc.

With `C#CCC(C#N)(CCc1ccccc1)c1cccnc1` (stereo not drawn) [Compound 4], the results for the inhibition at 500 µg/mL with Septoria nodorum, in the assay on Rhizoctonia solani and in the assay on Fusarium oxysporum were 92%, 82% and 100%, respectively. In assay [1], the “CER PER inhibition score” value is given as 100. Moreover, the pest or weed control at 1000 µg/mL with Helminthosporium sativum stood at 0%; with Erysiphe graminis [2] it was 70%; with Pyricularia oryzae, 50%. Also, the “Percent Reduction of Disease, CMS” value with Erysiphe cichoracearum is reported as 20%. In addition, the “Percent Reduction of Disease, BMS” value in the assay on Erysiphe graminis [3] is 35%.
Regarding `C=CCC(C#N)(CCc1ccccc1)c1cccnc1` (stereo not drawn) [Compound 5], the inhibition at 500 µg/mL was 50% in the assay on Septoria nodorum, 100% with Rhizoctonia solani and 76% in the assay with Fusarium oxysporum. For the same compound, the “CER PER inhibition score” value in assay [1] was 0. The pest or weed control at 1000 µg/mL in the assay with Helminthosporium sativum came out at 70%; in the assay with Erysiphe graminis [2], 85%; in the assay on Pyricularia oryzae, 83%. Besides, the “Percent Reduction of Disease, CMS” value with Erysiphe cichoracearum came to 88%. Also, in the assay with Erysiphe graminis [3], the “Percent Reduction of Disease, BMS” value was 85%.
As to `COCC(C#N)(CCc1ccccc1)c1cccnc1` (stereo not drawn) [Compound 6], the inhibition at 500 µg/mL in the assay with Septoria nodorum was 0%; in the assay on Rhizoctonia solani it was 50%; with Fusarium oxysporum it was 93%. Further, the “CER PER inhibition score” value in [1] was 0. Also, the pest or weed control at 1000 µg/mL in the assay with Helminthosporium sativum is 100%; with Erysiphe graminis [2], 70%; in the assay with Pyricularia oryzae it was 0%. Also, the “Percent Reduction of Disease, CMS” value in the assay with Erysiphe cichoracearum was 100%. Also, the “Percent Reduction of Disease, BMS” value with Erysiphe graminis [3] turned out to be 100%.
In the case of `CC(C)CC(C#N)(CCc1ccccc1)c1cccnc1` (stereo not drawn) [Compound 7], the inhibition at 500 µg/mL in the assay on Septoria nodorum was determined as 5%; in the assay with Rhizoctonia solani it was 94%; in the assay on Fusarium oxysporum, 100%. The “CER PER inhibition score” value in [1] turned out to be 0. The pest or weed control at 1000 µg/mL amounted to 70% with Helminthosporium sativum, 100% in the assay on Erysiphe graminis [2] and 83% in the assay on Pyricularia oryzae. Also, the “Percent Reduction of Disease, CMS” value in the assay on Erysiphe cichoracearum is given as 20%. For the same compound, in the assay on Erysiphe graminis [3], the “Percent Reduction of Disease, BMS” value is on record as 35%.
With `CC(C)=CCC(C#N)(CCc1ccccc1)c1cccnc1` (stereo not drawn) [Compound 8], the inhibition at 500 µg/mL in the assay with Septoria nodorum came to 25%; with Rhizoctonia solani, 45%; in the assay on Fusarium oxysporum, 0%. Besides, in assay [1], the “CER PER inhibition score” value was found to be 80. In addition, the pest or weed control at 1000 µg/mL with Helminthosporium sativum was 100%; in the assay on Erysiphe graminis [2] it was 100%; in the assay on Pyricularia oryzae, 0%. The “Percent Reduction of Disease, CMS” value with Erysiphe cichoracearum was determined as 0%. The “Percent Reduction of Disease, BMS” value in the assay on Erysiphe graminis [3] is recorded as 45%.
For `C=CCC(C#N)(CCc1ccc(F)cc1)c1cccnc1` (stereo not drawn) [Compound 9, 4-fluoro-α-(2-propenyl)-α-(3-pyridinyl)benzenebutanenitrile], the results for the inhibition at 500 µg/mL in the assay with Septoria nodorum, with Rhizoctonia solani and in the assay on Fusarium oxysporum were 30%, 95% and 100%, respectively. Besides, the “CER PER inhibition score” value in [1] is given as 100. Further, the pest or weed control at 1000 µg/mL in the assay on Helminthosporium sativum came out at 85%; in the assay on Erysiphe graminis [2], 100%; in the assay on Pyricularia oryzae it was 70%. In the assay with Erysiphe cichoracearum, the “Percent Reduction of Disease, CMS” value stood at 74%. In addition, the “Percent Reduction of Disease, BMS” value with Erysiphe graminis [3] is 40%.
For `CCCC(C#N)(CCc1ccc(F)cc1)c1cccnc1` (stereo not drawn) [Compound 10], the figures for the inhibition at 500 µg/mL in the assay with Septoria nodorum, in the assay with Rhizoctonia solani and in the assay on Fusarium oxysporum were 80%, 96% and 97%, respectively. Besides, the “CER PER inhibition score” value in [1] is listed as 100. In addition, the pest or weed control at 1000 µg/mL is 100% in the assay with Helminthosporium sativum, 100% in the assay on Erysiphe graminis [2] and 70% in the assay on Pyricularia oryzae. Also, the “Percent Reduction of Disease, CMS” value in the assay on Erysiphe cichoracearum is listed as 88%. For the same compound, in the assay with Erysiphe graminis [3], the “Percent Reduction of Disease, BMS” value came out at 84%.
On to `CCCCC(C#N)(CCc1ccc(F)cc1)c1cccnc1` (stereo not drawn) [Compound 11], for which the inhibition at 500 µg/mL with Septoria nodorum was determined as 60%; in the assay with Rhizoctonia solani it was 98%; in the assay with Fusarium oxysporum it was 10%. In addition, the “CER PER inhibition score” value in assay [1] amounted to 0. For the same compound, the pest or weed control at 1000 µg/mL in the assay on Helminthosporium sativum turned out to be 100%; with Erysiphe graminis [2] it was 100%; in the assay on Pyricularia oryzae, 85%. Also, in the assay with Erysiphe cichoracearum, the “Percent Reduction of Disease, CMS” value was 39%. For the same compound, the “Percent Reduction of Disease, BMS” value in the assay on Erysiphe graminis [3] was 74%.
Turning to `CCCC(C#N)(CCCc1ccc(Cl)cc1)c1cccnc1` (stereo not drawn) [Compound 12], the inhibition at 500 µg/mL with Septoria nodorum was determined as 70%; in the assay on Rhizoctonia solani it was 98%; in the assay on Fusarium oxysporum, 80%. Also, the “CER PER inhibition score” value in assay [1] came to 100. The pest or weed control at 1000 µg/mL with Helminthosporium sativum was determined as 100%; with Erysiphe graminis [2], 100%; in the assay with Pyricularia oryzae it was 85%. For the same compound, the “Percent Reduction of Disease, CMS” value with Erysiphe cichoracearum is given as 40%. In the assay on Erysiphe graminis [3], the “Percent Reduction of Disease, BMS” value turned out to be 40%.
With `CCCCC(C#N)(CCCc1ccc(Cl)cc1)c1cccnc1` (stereo not drawn) [Compound 13], the inhibition at 500 µg/mL amounted to 75% in the assay with Septoria nodorum, 100% with Rhizoctonia solani and 60% in the assay with Fusarium oxysporum. Moreover, in assay [1], the “CER PER inhibition score” value is 0. Further, the figures for the pest or weed control at 1000 µg/mL with Helminthosporium sativum, in the assay on Erysiphe graminis [2] and with Pyricularia oryzae were 100%, 100% and 85%, respectively. In addition, the “Percent Reduction of Disease, CMS” value with Erysiphe cichoracearum is listed as 0%. Further, the “Percent Reduction of Disease, BMS” value in the assay on Erysiphe graminis [3] stood at 40%.

Usually inhibition stands for how much of the control response was suppressed.
